Assay results taken from patent publication US10253039B2, “Inhibitors of bacterial DNA gyrase with efficacy against gram-negative bacteria” (priority 2014, dated 2019).
In brackets after ≈: the same amount, converted by molar mass. Where two headings read alike, the source gives them in different places.

Experiments:
Type in all cases: cell-based
[1] = tested on: Staphylococcus aureus subsp. aureus; experiment: MIC, 20-strain panel; details: read-out: MIC
In short: (§1)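 Broth microdilution per CLSI, 2-fold serial dilutions in Luria-Bertani medium with a 1:10000 inoculum from a growing subculture. Plates shaken at 37 °C for 16-18 h; MIC taken as lowest concentration showing no visible turbidity.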

[2] = tested on: E. coli MG1655; experiment: MIC, 20-strain panel; details: Escherichia coli, read-out: MIC
In short: as §1

[3] = tested on: E. coli JW5503 (deltolC); experiment: MIC, 20-strain panel; details: Escherichia coli
In short: as §1

[4] = tested on: Staphylococcus saprophyticus subsp. saprophyticus; experiment: MIC, 20-strain panel
In short: as §1

[5] = tested on: Streptococcus agalactiae; experiment: MIC, 20-strain panel
In short: as §1

[6] = tested on: Streptococcus pyogenes; experiment: MIC, 20-strain panel
In short: as §1

[7] = tested on: Salmonella enterica subsp. enterica typhimurium; experiment: MIC, 20-strain panel
In short: as §1

[8] = tested on: Shigella flexneri; experiment: MIC, 20-strain panel
In short: as §1

[9] = tested on: Staphylococcus epidermidis; experiment: MIC, 20-strain panel
In short: as §1

[10] = tested on: Klebsiella pneumoniae subsp. pneumoniae; experiment: MIC, 20-strain panel
In short: as §1

[11] = tested on: E. coli BW25113; experiment: MIC, microdilution in 96-well plates; details: Escherichia coli, read-out: MIC
In short: as §1

[12] = tested on: Edwardsiella tarda; experiment: MIC, microdilution in 96-well plates
In short: as §1

[13] = H: Staphylococcus aureus subsp. aureus
[14] = F: Salmonella enterica subsp. enterica Typhimurium
[15] = E: Klebsiella pneumoniae subsp. pneumoniae
[16] = Staphylococcus aureus subsp. aureus
[17] = Salmonella enterica subsp. enterica Typhimurium
[18] = Klebsiella pneumoniae subsp. pneumoniae

Compound | MIC [1, 13] | MIC ([2]; MG1655, A: E. coli MG1655) | MIC ([3]; C: E. coli JW5503 (deltolC)) | MIC [4] | MIC [5] | MIC [6] | MIC [7, 14] | MIC ([8]; G: Shigella flexneri) | MIC [9] | MIC [10, 15] | MIC ([11]; BW25113, B: E. coli BW25113) | MIC ([12]; D: Edwardsiella tarda) | MIC [1, 16] | MIC ([2]; MG1655, E. coli MG1655) | MIC ([3]; E. coli JW5503 (deltolC)) | MIC [7, 17] | MIC [8] | MIC [10, 18] | MIC ([11]; BW25113, E. coli BW25113) | MIC [12]
O=S(=O)(N[C@@H]1CCN(Cc2ccc(-c3ccccc3)cc2)C1)c1cc(Cl)cc(C(F)(F)F)c1 [Compound 110] | > 8 µg/mL | > 8 µg/mL | > 8 µg/mL | > 8 µg/mL | > 8 µg/mL | 8 µg/mL (≈ 16.2 µM) | > 8 µg/mL | > 8 µg/mL | 4 µg/mL (≈ 8.08 µM) | > 8 µg/mL | > 8 µg/mL | > 8 µg/mL | – | – | – | – | – | – | – | –
O=S(=O)(N[C@@H]1CCN(Cc2ccc(-c3ccccc3)cc2)C1)c1cnc2ccsc2c1 [Compound 111] | > 8 µg/mL | > 8 µg/mL | > 8 µg/mL | > 8 µg/mL | > 8 µg/mL | > 8 µg/mL | > 8 µg/mL | > 8 µg/mL | > 8 µg/mL | > 8 µg/mL | > 8 µg/mL | > 8 µg/mL | – | – | – | – | – | – | – | –
Cc1ccc(C#N)cc1S(=O)(=O)N[C@@H]1CCN(Cc2ccc(OC(C)C)cc2)C1 [Compound 112] | > 8 µg/mL | > 8 µg/mL | 0.25 µg/mL (≈ 0.605 µM) | > 8 µg/mL | > 8 µg/mL | > 8 µg/mL | 4 µg/mL (≈ 9.67 µM) | > 8 µg/mL | > 8 µg/mL | > 8 µg/mL | > 8 µg/mL | > 8 µg/mL | – | – | – | – | – | – | – | –
O=S(=O)(N[C@@H]1CCN(Cc2ccc(-c3ccccc3)cc2)C1)c1cc(C(F)(F)F)ccc1F [Compound 114] | > 8 µg/mL | > 8 µg/mL | 1 µg/mL (≈ 2.09 µM) | > 8 µg/mL | > 8 µg/mL | ~8 µg/mL (≈ 16.7 µM) | 4 µg/mL (≈ 8.36 µM) | > 8 µg/mL | ~8 µg/mL (≈ 16.7 µM) | > 8 µg/mL | > 8 µg/mL | > 8 µg/mL | – | – | – | – | – | – | – | –
Cc1nn(C)c2ncc(S(=O)(=O)N[C@@H]3CCN(Cc4ccc(-c5ccccc5)cc4)C3)cc12 [Compound 115] | > 8 µg/mL | > 8 µg/mL | > 8 µg/mL | > 8 µg/mL | > 8 µg/mL | > 8 µg/mL | > 8 µg/mL | > 8 µg/mL | > 8 µg/mL | > 8 µg/mL | > 8 µg/mL | > 8 µg/mL | – | – | – | – | – | – | – | –
CC(C)Oc1c(Cl)cc(CN2CC[C@@H](NS(=O)(=O)c3cccc(C#N)c3)C2)cc1Cl [Compound 116] | > 8 µg/mL | > 8 µg/mL | > 8 µg/mL | > 8 µg/mL | > 8 µg/mL | > 8 µg/mL | > 8 µg/mL | > 8 µg/mL | > 8 µg/mL | > 8 µg/mL | > 8 µg/mL | > 8 µg/mL | – | – | – | – | – | – | – | –
CC(C)Oc1c(Cl)cc(CN2CC[C@@H](NS(=O)(=O)c3cccc(OC(F)(F)F)c3)C2)cc1Cl [Compound 117] | > 8 µg/mL | > 8 µg/mL | > 8 µg/mL | > 8 µg/mL | > 8 µg/mL | > 8 µg/mL | > 8 µg/mL | > 8 µg/mL | > 8 µg/mL | > 8 µg/mL | > 8 µg/mL | > 8 µg/mL | – | – | – | – | – | – | – | –
CC(C)Oc1ccc(CN2CC[C@@H](NS(=O)(=O)c3ccc(Cl)c(C#N)c3)C2)cc1 [Compound 118] | > 8 µg/mL | > 8 µg/mL | > 8 µg/mL | > 8 µg/mL | > 8 µg/mL | > 8 µg/mL | > 8 µg/mL | > 8 µg/mL | > 8 µg/mL | > 8 µg/mL | > 8 µg/mL | > 8 µg/mL | – | – | – | – | – | – | – | –
N#Cc1cc(S(=O)(=O)N[C@@H]2CCN(Cc3ccc(OC4CC4)cc3)C2)ccc1Cl [Compound 119] | > 8 µg/mL | > 8 µg/mL | > 8 µg/mL | > 8 µg/mL | > 8 µg/mL | > 8 µg/mL | > 8 µg/mL | > 8 µg/mL | > 8 µg/mL | > 8 µg/mL | > 8 µg/mL | > 8 µg/mL | – | – | – | – | – | – | – | –
N#Cc1cc(S(=O)(=O)N[C@@H]2CCN(Cc3ccc(-c4ccccc4)cc3)C2)ccc1Cl [Compound 120] | > 8 µg/mL | > 8 µg/mL | ~8 µg/mL (≈ 17.7 µM) | > 8 µg/mL | > 8 µg/mL | > 8 µg/mL | > 8 µg/mL | > 8 µg/mL | > 8 µg/mL | > 8 µg/mL | > 8 µg/mL | > 8 µg/mL | – | – | – | – | – | – | – | –
Cc1ccncc1S(=O)(=O)N[C@@H]1CCN(Cc2ccc(OC(C)C)cc2)C1 [Compound 121] | > 8 µg/mL | > 8 µg/mL | ~8 µg/mL (≈ 20.5 µM) | > 8 µg/mL | > 8 µg/mL | > 8 µg/mL | > 8 µg/mL | > 8 µg/mL | > 8 µg/mL | > 8 µg/mL | > 8 µg/mL | > 8 µg/mL | – | – | – | – | – | – | – | –
O=S(=O)(N[C@@H]1CCN(Cc2ccc(-c3ccccc3)cc2)C1)c1cnccc1Cl [Compound 122] | > 8 µg/mL | > 8 µg/mL | 4 µg/mL (≈ 9.35 µM) | > 8 µg/mL | > 8 µg/mL | > 8 µg/mL | > 8 µg/mL | > 8 µg/mL | ~8 µg/mL (≈ 18.7 µM) | > 8 µg/mL | > 8 µg/mL | > 8 µg/mL | – | – | – | – | – | – | – | –
Cc1nn(C)c2ncc(S(=O)(=O)N[C@@H]3CCN(Cc4ccc(OC(C)C)cc4)C3)cc12 [Compound 123] | > 8 µg/mL | > 8 µg/mL | > 8 µg/mL | > 8 µg/mL | > 8 µg/mL | > 8 µg/mL | > 8 µg/mL | > 8 µg/mL | > 8 µg/mL | > 8 µg/mL | > 8 µg/mL | > 8 µg/mL | – | – | – | – | – | – | – | –
N#Cc1cccc(S(=O)(=O)N[C@@H]2CCN(Cc3cn(-c4ccccc4)nn3)C2)c1 [Compound 124] | > 8 µg/mL | > 8 µg/mL | > 8 µg/mL | > 8 µg/mL | > 8 µg/mL | > 8 µg/mL | > 8 µg/mL | > 8 µg/mL | > 8 µg/mL | > 8 µg/mL | > 8 µg/mL | > 8 µg/mL | – | – | – | – | – | – | – | –
O=S(=O)(N[C@@H]1CCN(Cc2ccn(-c3ccccc3)n2)C1)c1cccc(C(F)(F)F)c1 [Compound 125] | > 8 µg/mL | > 8 µg/mL | > 8 µg/mL | > 8 µg/mL | > 8 µg/mL | > 8 µg/mL | > 8 µg/mL | > 8 µg/mL | > 8 µg/mL | > 8 µg/mL | > 8 µg/mL | > 8 µg/mL | – | – | – | – | – | – | – | –
N#Cc1cccc(S(=O)(=O)N[C@@H]2CCN(Cc3ccn(-c4ccccc4)n3)C2)c1 [Compound 126] | > 8 µg/mL | > 8 µg/mL | > 8 µg/mL | > 8 µg/mL | > 8 µg/mL | > 8 µg/mL | > 8 µg/mL | > 8 µg/mL | > 8 µg/mL | > 8 µg/mL | > 8 µg/mL | > 8 µg/mL | – | – | – | – | – | – | – | –
COc1ccccc1-c1ccc(CN2CC[C@@H](NS(=O)(=O)c3cccc(C#N)c3)C2)cc1 [Compound 127] | > 8 µg/mL | > 8 µg/mL | 4 µg/mL (≈ 8.94 µM) | > 8 µg/mL | > 8 µg/mL | > 8 µg/mL | > 8 µg/mL | > 8 µg/mL | > 8 µg/mL | > 8 µg/mL | > 8 µg/mL | > 8 µg/mL | – | – | – | – | – | – | – | –
O=S(=O)(N[C@@H]1CCN(Cc2ccc(OC3CC3)cc2)C1)c1cc(C(F)(F)F)cc(C(F)(F)F)c1 [Compound 128] | > 8 µg/mL | > 8 µg/mL | 8 µg/mL (≈ 15.7 µM) | > 8 µg/mL | > 8 µg/mL | > 8 µg/mL | > 8 µg/mL | > 8 µg/mL | > 8 µg/mL | > 8 µg/mL | > 8 µg/mL | > 8 µg/mL | – | – | – | – | – | – | – | –
O=S(=O)(N[C@@H]1CCN(Cc2cn(-c3ccccc3)nn2)C1)c1cccc(OC(F)(F)F)c1 [Compound 129] | – | – | – | > 8 µg/mL | > 8 µg/mL | > 8 µg/mL | – | – | > 8 µg/mL | – | – | – | > 8 µg/mL | > 8 µg/mL | > 8 µg/mL | > 8 µg/mL | > 8 µg/mL | > 8 µg/mL | > 8 µg/mL | > 8 µg/mL
O=S(=O)(N[C@@H]1CCN(Cc2ccc(OC3CC3)cc2)C1)c1ncc[nH]1 [Compound 130] | – | – | – | > 8 µg/mL | > 8 µg/mL | > 8 µg/mL | – | – | > 8 µg/mL | – | – | – | > 8 µg/mL | > 8 µg/mL | ~8 µg/mL (≈ 22.1 µM) | ~8 µg/mL (≈ 22.1 µM) | > 8 µg/mL | > 8 µg/mL | > 8 µg/mL | > 8 µg/mL
Cc1ccc(S(=O)(=O)N[C@@H]2CCN(Cc3ccc(-c4ccccc4)cc3)C2)cc1C#N [Compound 131] | – | – | – | > 8 µg/mL | > 8 µg/mL | > 8 µg/mL | – | – | > 8 µg/mL | – | – | – | > 8 µg/mL | > 8 µg/mL | 8 µg/mL (≈ 18.5 µM) | > 8 µg/mL | > 8 µg/mL | > 8 µg/mL | > 8 µg/mL | > 8 µg/mL
O=S(=O)(N[C@@H]1CCN(Cc2ccc(OC3CC3)cc2)C1)c1ccc(Cl)cn1 [Compound 132] | – | – | – | > 8 µg/mL | > 8 µg/mL | > 8 µg/mL | – | – | > 8 µg/mL | – | – | – | > 8 µg/mL | > 8 µg/mL | > 8 µg/mL | > 8 µg/mL | > 8 µg/mL | > 8 µg/mL | > 8 µg/mL | > 8 µg/mL
